Among the data in PubChem BioAssay AID687000 (Broad Institute, 2013) are AC40 values, retold here.

Several values for one entry are separate records, joined by “and”; a condition that tells them apart may be missing. Equal entries are not always repeated. Activity calls are given as the source filed them.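 How the source made its calls: active means fitted dose curve reaches 40% lysis signal rise at or below the highest valid concentration tested for that sample; inconclusive means flat fit between 30% and 70%, or poor curve fit; inactive means signal falls, stays flat within 30%, or no crossing.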

For this experiment, the system named is C. neoformans lysis, adenylate kinase release luminescence, 4 h. Kind of experiment: inducers of Cryptococcus neoformans cell lysis, dose response, AK release luminescence, cherry-picks (AID 687000).
For the compound `Cc1noc(C)c1S(=O)(=O)Nc1ccc2c(c1)C(=O)N([C@@H](C)CO)C[C@@H](C)[C@@H](CN(C)Cc1ccccc1)OCCCC[C@H](C)O2`, the AC40 was > 15 µM (inactive). Consider `S=C(NCCCc1ccccc1)Nc1ccccc1`, for which the AC40 is 2.56 µM.

For the compound `COC(=O)C1=C(C)N(Cc2ccc(Br)cc2)C(=S)NC1c1ccc(F)cc1` (stereo not given), the AC40 is 4.62 µM and 7.82 µM. With `Fc1ccccc1NC(=S)NN(Cc1ccccc1)c1ccccc1` the figure was 5.17 µM; with `COc1ccc(C(=O)NC(=S)Nc2cccc(Cl)c2N2CCOCC2)cc1[N+](=O)[O-]`, > 15 µM (inactive); with `C[C@@H]1CN([C@@H](C)CO)C(=O)c2cc(NS(=O)(=O)c3cn(C)cn3)ccc2O[C@@H](C)CCCCO[C@@H]1CN(C)Cc1ccc(C(F)(F)F)cc1`, > 15 µM (inactive). With `COC(=O)C1=C(C)N(Cc2ccc(Br)cc2)C(=S)NC1c1ccc(OC)cc1` (stereo not given) the figure was 1.93 µM and 1.57 µM. With `COC(=O)C1=C(C)N(Cc2ccccc2)C(=S)NC1c1ccc(Cl)cc1` (stereo not given) the figure was 2.45 µM; with `CCOC(=O)c1c(-c2ccc(-c3ccccc3)cc2)csc1NC(=O)CNCCN(C)C`, 1.62 µM. Turning to `COc1ccc(N2CCN(C(=O)Cc3cccs3)CC2)cc1`, the AC40 is > 15 µM (inactive). With `COc1ccc(CN(C)C[C@H]2Oc3ccc(NC(=O)Nc4ccc(F)cc4)cc3CC(=O)N([C@@H](C)CO)C[C@@H]2C)cc1` the figure was > 16 µM (inactive); with `Cc1cc(C)c(NC(=O)C2CCCN2CCC(C)C)c(C)c1` (stereo not given), > 15 µM (inactive). With `O=C(CC1CC1)N1[C@@H]2CN(S(=O)(=O)c3ccccc3)c3ccccc3[C@@H]2[C@@H]1CO` the figure was > 16 µM (inactive); with `COC(=O)C1=C(C)N(CC(C)C)C(=S)NC1c1cccc(F)c1` (stereo not given), > 15 µM (inactive) and 3.43 µM; with `COC(=O)C1=C(C)N(Cc2ccccc2)C(=S)N[C@H]1c1ccc(Br)cc1`, 2.89 µM and 9.81 µM. To `C[C@@H]1CN([C@@H](C)CO)C(=O)c2cc(NC(=O)C3CC3)ccc2O[C@H]1CN(C)CC1CCCCC1` belongs > 15 µM (inactive). On to `CC=Cc1ccc2n(c1=O)C[C@@H]1[C@@H](CO)[C@H](C(=O)N3CCc4ccccc4C3)N(C(=O)C3CC3)[C@H]21` (mixture of isomers), for which the AC40 is > 15 µM (inactive). To `O=C(NC(=S)Nc1ccccc1N1CCCC1)c1ccccc1[N+](=O)[O-]` belongs > 15 µM (inactive). With `Cc1ccc(OCCn2c(=S)[nH]c3ccccc32)c(C(C)C)c1` the figure was 0.883 µM; with `COc1cc(OC)c(N(C)C(=O)c2cn(C)c(=O)c3cc(OC)c(OC)cc23)cc1Cl`, > 15 µM (inactive); with `CCCC(=O)Nc1ccc2c(c1)C(=O)N(C)C[C@H](OC)[C@@H](C)CN(C(=O)c1cccnc1)[C@H](C)CO2`, 13.7 µM. `COC(=O)C1=C(C)N(Cc2ccccc2)C(=S)NC1c1cccc(Br)c1` (stereo not given): the AC40 is 3.56 µM and > 15 µM (inactive). To `CCOC(=O)NC(=S)Nc1ccc(C(C)(C)C)cc1Br` belongs 3.16 µM.

Take `Cc1cc(C(=O)NC(=S)Nc2ccccc2N2CCOCC2)ccc1[N+](=O)[O-]`: the AC40 was 4.95 µM. In the case of `Cc1ccccc1NC(=O)C(=O)NCCCN1CCCC1=O`, the AC40 is > 15 µM (inactive).

As for `CNC[C@@H]1OCCCC[C@@H](C)Oc2ccc(NC(=O)Nc3ccc4c(c3)OCO4)cc2C(=O)N([C@H](C)CO)C[C@@H]1C`, the AC40 was > 15 µM (inactive). To `COCC(=O)N(C)C[C@H]1Oc2ncc(-c3ccccc3F)cc2C(=O)N([C@@H](C)CO)C[C@H]1C` belongs > 15 µM (inactive); to `COCC(=O)Nc1ccc2c(c1)C(=O)N(C)C[C@H](OC)[C@@H](C)CN(C(=O)c1ccccc1)[C@@H](C)CO2`, > 15 µM (inactive). To `C[C@@H]1CN([C@H](C)CO)S(=O)(=O)c2ccc(C#C[C@@H](C)O)cc2O[C@@H]1CN(C)Cc1ccncc1` belongs > 15 µM (inactive); to `COC(=O)C1=C(C)N(Cc2ccc(Br)cc2)C(=S)NC1c1ccccc1` (stereo not given), 2.1 µM.
